Values quoted from earlier work, collected in US12030986B2, “Sustained release composition using biobased biodegradable hyperbranched polyesters” (CENTRAL MICHIGAN UNIVERSITY, priority 2014, dated 2024).

| Compound | pKa |
| --- | --- |
| C[C@@H](O)[C@H](N)C(=O)O [threonine] | 2.1 |
| CNCC(=O)O [methlyglycine] | 2.2 |
| N[C@@H](CCC(=O)O)C(=O)O [glutamic] | 2.1 |
| N[C@@H](CCSSCC[C@H](N)C(=O)O)C(=O)O [homocystine] | 1.6 |
| CC(=O)C(=O)O [pyruvic] | 2.4 |
| O=C(O)[C@@H]1C[C@@H](O)CN1 (relative stereo) [trans-4-hydroxyproline] | 1.8 |
| O=C(O)/C=C(/CC(=O)O)C(=O)O [cis-aconitic] | 2.0 |
| O=P(O)(O)O[C@H]1[C@H](OP(=O)(O)O)[C@@H](OP(=O)(O)O)[C@H](OP(=O)(O)O)[C@@H](OP(=O)(O)O)[C@H]1OP(=O)(O)O [Phytic, phytic acid] | 1.8 |
| O=C(O)c1cccnc1 [nicotinic] | 2.2 |
| NC(CS(=O)(=O)O)C(=O)O (stereo not drawn) [cysteic] | 1.3 |
| N[C@@H](CC(=O)O)C(=O)O [aspartic] | 2.0 |
| O=C(O)c1ccccn1 [picolinic acid] | 1.0 |
